This note sets out measurements from US20090047365A1, “Novel Concomitant Use of Sulfonamide Compound with Anti-Cancer Agent” (Eisai R & D Management Co., Ltd., priority 2005, published 2009).

The subject of experiment [1] is Human umbilical vein endothelial cells. As to the kind of experiment: vascular endothelial cell proliferation assay (in vitro), combinational use of E7820 and anti-cancer drug. The experiment is classed as cell-based. The procedure: These diluted solutions were added to the cultured wells for 100 μl/well for further cultivation.
The subject of experiment [2] is Human umbilical vein endothelial cell (HUVEC). As to the kind of experiment: vascular endothelial cell lumen formation assay (in vitro), combinational use of E7820 and anti-cancer drug. The experiment is classed as cell-based. The procedure: Four-hundred μl of type I collagen gel (Nitta Gelatin) was dispensed in a 24-well plate (FALCON) and left in a CO2 incubator at 37° C. for 40 minute for gelatinization. A serum-free medium (Human endothelial-SFM Basal Growth Medium, Invitrogen) containing 20 ng/ml EGF (GIBCO BRL) was prepared. Two-hundred μl of this solution was dispensed in the wells containing type I collagen gel. Human umbilical vein endothelial cell (HUVEC) line was suspended in a serum-free medium (Human endothelial-SFM Basal Growth Medium, GIBCO BRL) to prepare 5×10^5 cells/ml cell suspension. Two-hundred μl of this suspension was seeded on the wells containing the type I collagen gel and the serum-free medium and cultured overnight.
On the following day, the wells were overlaid with 400 μl of type I collagen gel and left in a CO2 incubator at 37° C. for 3 hours for gelatinization. Then, the serum-free media (containing 10 ng/ml EGF and 20 ng/ml VEGF (Genzyme Techne Corp.)) containing E7820 alone, containing an anti-cancer drug alone and containing both E7820 and the anti-cancer drug for combinational use were added for 1.5 ml each and further cultured in a CO2 incubator at 37° C. for 3 days.
After the cultivation, 400 μl of 3.3 mg/ml MTT (SIGMA) solution was dispensed in the wells and reacted in a CO2 incubator at 37° C. for 3 hours for the cells to develop color.

Setting [3] is: combined with E7820, fa 0.9, HUVEC proliferation.
The mark [4] stands for this setting: combined with E7820, fa 0.95, HUVEC proliferation.
Where [5] appears, read: combined with E7820, fa 0.7, HUVEC proliferation.
Setting [6] is: combined with E7820, fa 0.8, HUVEC proliferation.
Where [7] appears, read: combined with E7820, fa 0.6, HUVEC proliferation.

Where “and” joins values, the source holds several entries; their conditions need not be identical. Equal values may be shown once. Where a name gives a salt, the structure may show the parent alone. Read-outs that look alike come from different tables or passages of the source.

`CN(Cc1cnc2nc(N)nc(N)c2n1)c1ccc(C(=O)N[C@@H](CCC(=O)O)C(=O)O)cc1` [Methotrexate, N-{4-[N-(2,4-diaminopteridin-6-ylmethyl)-N-methylamino]benzoyl}-L-glutamic acid]: the Combined effect entry in experiment [1] (setting [3]) and in experiment [1] (setting [4]) was “Synergistic” each time.

`CC(=O)O[C@H]1C(=O)[C@@]2(C)[C@H]([C@H](OC(=O)c3ccccc3)[C@]3(O)C[C@H](OC(=O)[C@H](O)[C@@H](NC(=O)c4ccccc4)c4ccccc4)C(C)=C1C3(C)C)[C@]1(OC(C)=O)CO[C@@H]1C[C@@H]2O` [Paclitaxel, (−)-(1S, 2R, 3S, 4S, 5R, 7S, 8S, 10R, 13S)-4,10-diacetoxy-2-benzoyloxy-5,20-epoxy, 1,7-dihydroxy-9-oxotax-11-en-13-yl (2S,3S)-3-benzoylamino-2-hydroxy-3-phenylpropionate]: the Combined effect entry in experiment [1] (setting [5]) was “Synergistic”; in experiment [1] (setting [6]) it was “Synergistic”; in experiment [1] (setting [3]), “Synergistic”; in experiment [1] (setting [4]), “Synergistic”; in experiment [2] (combined with E7820, fa 0.7), “Synergistic”; in experiment [2] (combined with E7820, fa 0.8), “Synergistic”. For the same molecule, the Combined effect result in experiment [2] (combined with E7820, fa 0.9) is recorded as “Synergistic”; in experiment [2] (combined with E7820, fa 0.95), “Synergistic”.

For the molecule `N.N.[Cl][Pt][Cl]` [Cisplatin, cis-diamminedichloroplatinum II], the Combined effect result is recorded as “Synergistic” in experiment [1] (setting [7]); “Synergistic” in experiment [1] (setting [5]); “Synergistic” in experiment [1] (setting [6]); “Synergistic” in experiment [1] (setting [3]); “Synergistic” in experiment [1] (setting [4]); “Synergistic” in experiment [2] (combined with E7820, fa 0.05). In addition, the Combined effect entry is recorded as “Synergistic” in experiment [2] (combined with E7820, fa 0.1); “Synergistic” in experiment [2] (combined with E7820, fa 0.2); “Synergistic” in experiment [2] (combined with E7820, fa 0.3); “Synergistic” in experiment [2] (combined with E7820, fa 0.4); “Synergistic” in experiment [2] (combined with E7820, fa 0.5); “Synergistic” in experiment [2] (combined with E7820, fa 0.6). The Combined effect result in experiment [2] (combined with E7820, fa 0.7) is given as “Synergistic”; in experiment [2] (combined with E7820, fa 0.8), “Synergistic”; in experiment [2] (combined with E7820, fa 0.9), “Synergistic”; in experiment [2] (combined with E7820, fa 0.95), “Synergistic”. The “Combination index (CI)” value in experiment [1] (setting [5]) was 0.7; in experiment [1] (setting [6]) it was 0.5; in experiment [1] (setting [3]), 0.4; in experiment [1] (setting [4]), 0.3; in experiment [1] (combined with E7820, fractional inhibition (fa) 0.6, HUVEC proliferation), 0.9; in experiment [2] (combined with E7820, fa 0.05), 0.7. Besides, the “Combination index (CI)” value in experiment [2] (combined with E7820, fa 0.1) came to 0.6; in experiment [2] (combined with E7820, fa 0.2) it was 0.6; in experiment [2] (combined with E7820, fa 0.3) it was 0.6; in experiment [2] (combined with E7820, fa 0.4) it was 0.5; in experiment [2] (combined with E7820, fa 0.5), 0.5; in experiment [2] (combined with E7820, fa 0.6), 0.5. Moreover, the “Combination index (CI)” value is listed as 0.5 in experiment [2] (combined with E7820, fa 0.7); 0.5 in experiment [2] (combined with E7820, fa 0.8); 0.5 in experiment [2] (combined with E7820, fa 0.9); 0.4 in experiment [2] (combined with E7820, fa 0.95).

As to `Nc1ccn([C@@H]2O[C@H](CO)[C@@H](O)C2(F)F)c(=O)n1` [Gemcitabine, 2′-deoxy-2′,2′-difluoro-cytidine hydrochloride], the Combined effect entry in experiment [1] (setting [6]) is listed as “Synergistic”; in experiment [1] (setting [3]) it was “Synergistic”; in experiment [2] (combined with E7820, fa 0.3) it was “Synergistic”; in experiment [2] (combined with E7820, fa 0.4) it was “Synergistic”; in experiment [2] (combined with E7820, fa 0.5) it was “Synergistic”; in experiment [2] (combined with E7820, fa 0.6), “Synergistic”. Also, the Combined effect entry in experiment [2] (combined with E7820, fa 0.7) is “Synergistic”; in experiment [2] (combined with E7820, fa 0.8), “Synergistic”; in experiment [2] (combined with E7820, fa 0.9) it was “Synergistic”; in experiment [2] (combined with E7820, fa 0.95) it was “Synergistic”.

As to `CCc1c2c(nc3ccc(O)cc13)-c1cc3c(c(=O)n1C2)COC(=O)[C@]3(O)CC` [SN38, 7-ethyl-10-hydro-(20)S-Camptothecin], the “Combination index (CI)” value in experiment [1] is 0.6 and 0.5 and 0.8. The Combined effect entry is reported as “Synergistic” in experiment [1] (setting [7]); “Synergistic” in experiment [1] (setting [5]); “Synergistic” in experiment [1] (setting [6]); “Synergistic” in experiment [1] (setting [3]); “Synergistic” in experiment [1] (setting [4]); “Synergistic” in experiment [2] (combined with E7820, fa 0.3). The Combined effect entry in experiment [2] (combined with E7820, fa 0.4) is “Synergistic”; in experiment [2] (combined with E7820, fa 0.5) it was “Synergistic”; in experiment [2] (combined with E7820, fa 0.6), “Synergistic”; in experiment [2] (combined with E7820, fa 0.7), “Synergistic”; in experiment [2] (combined with E7820, fa 0.8) it was “Synergistic”; in experiment [2] (combined with E7820, fa 0.9), “Synergistic”. Besides, the Combined effect entry in experiment [2] (combined with E7820, fa 0.95) is given as “Synergistic”.

“10-[(3-amino-2,3,6-trideoxy-α-L-lyxo-hexopyranosyl)oxy]-7,8,9,10-tetrahydro-6,8,11-tri hydroxy-8-(hydroxyacetyl)-1-methoxy-(8S-cis)-5,12-naphthacenedione [Doxorubicin]”: the Combined effect entry in experiment [1] (setting [7]) is “Synergistic”; in experiment [1] (setting [5]) it was “Synergistic”; in experiment [1] (setting [6]) it was “Synergistic”; in experiment [1] (setting [3]) it was “Synergistic”; in experiment [1] (setting [4]) it was “Synergistic”; in experiment [2] (combined with E7820, fa 0.2) it was “Synergistic”. For the same molecule, the Combined effect entry is listed as “Synergistic” in experiment [2] (combined with E7820, fa 0.3); “Synergistic” in experiment [2] (combined with E7820, fa 0.4); “Synergistic” in experiment [2] (combined with E7820, fa 0.5); “Synergistic” in experiment [2] (combined with E7820, fa 0.6); “Synergistic” in experiment [2] (combined with E7820, fa 0.7); “Synergistic” in experiment [2] (combined with E7820, fa 0.8). Besides, the Combined effect entry is given as “Synergistic” in experiment [2] (combined with E7820, fa 0.9) and “Synergistic” in experiment [2] (combined with E7820, fa 0.95).
